Patent publication US9399637B2, “Substituted heteroaryl compounds and methods of use” (Calitor Sciences, LLC, priority 2014, dated 2016)

What was measured:
[1] = Compound stability in human liver microsomes; assay type: in vitro ADME; conditions: pH 7.4; for half-life at 5 μM: human liver microsomes 0.5 mg protein/mL, compound 5 μM, NADPH, 37° C., read-out: Human T1/2; for CLint scaled at 5 μM: human liver microsomes, in vivo CLint extrapolated
Experimental: (§1) Human or rat liver microsomes incubations were conducted in duplicate in polypropylene tubes. The typical incubation mixtures consisted of human or rat liver microsomes (0.5 mg protein/mL), compounds of interest (5 μM) and NADPH (1.0 mM) in a total volume of 200 μL potassium phosphate buffer (PBS, 100 mM, pH 7.4). Compounds were dissolved in DMSO and diluted with PBS such that the final concentration of DMSO was 0.05%. The enzymatic reactions were commenced with the addition of […] after a 3-min preincubation and incubated in a water bath open to the air at 37° C. Reactions were terminated at various time points (0, 5, 10, 15, 30, 60 min) by adding equal volume of ice-cold acetonitrile. The samples were stored at […] until LC/MS/MS assays.
(§2) The concentrations of compounds in the incubation mixtures of human or rat liver microsomes were determined by a LC/MS/MS method. The ranges of the linearity in the concentration range were determined for each tested compounds.
(§3) A parallel incubation was performed using denatured microsomes as the negative control, and reactions were terminated at various time points (0, 15, 60 min) after incubation at 37° C.
(§4) Dextromethorphan (70 μM) was selected as the positive control, and reactions were terminated at various time points (0, 5, 10, 15, 30, 60 min) after incubation at 37° C. Both positive and negative control samples were included in each assay to ensure the integrity of the microsomal incubation system.
(§5) The concentrations of compounds in human or rat liver microsome incubations were plotted as a percentage of the relevant zero time point control for each reaction. The in vivo CLint were extrapolated (ref.: Naritomi, Y.; Terashita, S.; Kimura, S.; Suzuki, A.; Kagayama, A.; and Sugiyama, Y.; Prediction of human hepatic clearance from in vivo animal experiments and in vitro metabolic studies with liver microsomes from animals and humans. Drug Metab. Dispos., 2001, 29: 1316-1324).

[2] = Compound stability in rat liver microsomes; assay type: in vitro ADME; conditions: pH 7.4; for half-life at 5 μM: rat liver microsomes 0.5 mg protein/mL, compound 5 μM, NADPH, 37° C., read-out: Rat T1/2; for CLint scaled at 5 μM: rat liver microsomes, in vivo CLint extrapolated
Experimental: as §1, §2, §3, §4, §5

[3] = Pharmacokinetics after intravenous and oral administration in rats; assay type: in vivo; conditions: iv dosing, 1 mg/kg; for AUC(0-t) / half-life / Vd: rat, plasma; for Vd: read-out: Vss
Experimental: The LC/MS/MS system used in the analysis consists of an Agilent 1200 Series vacuum degasser, binary pump, well-plate autosampler, thermostatted column compartment, the Agilent G6430 Triple Quadrupole Mass Spectrometer with an electrosprayionization (ESI) source. Quantitative analysis was carried out using MRM mode. The parameters for MRM transitions are in the Table A.
An Agilent XDB-C18, 2.1×30 mm, 3.5 μM column was used for the analysis. 5 μL of the samples were injected. Analysis condition: The mobile phase was 0.1% formic acid in water (A) and 0.1% formic acid in methanol (B). The flow rate was 0.4 mL/min. And the gradient of Mobile phase was in the Table B.
Alternatively, an Agilent 6330 series LC/MS/MS spectrometer equipped with G1312A binary pumps, a G1367A autosampler and a G1314C UV detector were used in the analysis. An ESI source was used on the LC/MS/MS spectrometer. The analysis was done in positive ion mode as appropriate and the MRM transition for each analyte was optimized using standard solution. A Capcell MP-C18 100×4.6 mm I.D., […] column (Phenomenex, Torrance, Calif., USA) was used during the analysis. The mobile phase was 5 mM ammonia acetate, 0.1% MeOH in water (A): 5 mM ammonia acetate, 0.1% MeOH in acetonitrile (B) (70:30, v/v). The flow rate was 0.6 mL/min. Column was maintained at ambient temperature. 20 μL of the samples were injected.
The compounds disclosed herein are assessed in pharmacokinetic studies in mice, rats, dogs or monkeys. The compounds are administered as a water solution, 2% HPMC+1% TWEEN®80 in water solution, 5% DMSO+5% solutol in saline, 4% MC suspension or capsule. For the intravenous administration, the animals are generally given at 1 or 2 mg/kg dose. For the oral (p.o.) dosing, mice and rats are generally given 5 or 10 mg/kg dose, and dogs and monkeys are generally given 10 mg/kg dose. The blood samples (0.3 mL) are drawn at 0.25, 0.5, 1.0, 2.0, 3.0, 4.0, 6.0, 8.0, 12 and 24 h time points or 0.083, 0.25, 0.5, 1.0, 2.0, 4.0, 6.0, 8.0 and 24 h time points and centrifuged at 3,000 or 4000 rpm for 2 to 10 min. The plasma solutions are collected, and stored at −20° C. or −70° C. until analyzed by LC/MS/MS as described above.

JAK1 (h) = molecular target: T1, JAK1 (h) (Homo sapiens, UniProt P23458); assay: JAK1 kinase assay; assay type: biochemical
T1 construct: purchased Millipore UK Ltd (assays run there as a service)
T1 sequence (P23458 whole entry): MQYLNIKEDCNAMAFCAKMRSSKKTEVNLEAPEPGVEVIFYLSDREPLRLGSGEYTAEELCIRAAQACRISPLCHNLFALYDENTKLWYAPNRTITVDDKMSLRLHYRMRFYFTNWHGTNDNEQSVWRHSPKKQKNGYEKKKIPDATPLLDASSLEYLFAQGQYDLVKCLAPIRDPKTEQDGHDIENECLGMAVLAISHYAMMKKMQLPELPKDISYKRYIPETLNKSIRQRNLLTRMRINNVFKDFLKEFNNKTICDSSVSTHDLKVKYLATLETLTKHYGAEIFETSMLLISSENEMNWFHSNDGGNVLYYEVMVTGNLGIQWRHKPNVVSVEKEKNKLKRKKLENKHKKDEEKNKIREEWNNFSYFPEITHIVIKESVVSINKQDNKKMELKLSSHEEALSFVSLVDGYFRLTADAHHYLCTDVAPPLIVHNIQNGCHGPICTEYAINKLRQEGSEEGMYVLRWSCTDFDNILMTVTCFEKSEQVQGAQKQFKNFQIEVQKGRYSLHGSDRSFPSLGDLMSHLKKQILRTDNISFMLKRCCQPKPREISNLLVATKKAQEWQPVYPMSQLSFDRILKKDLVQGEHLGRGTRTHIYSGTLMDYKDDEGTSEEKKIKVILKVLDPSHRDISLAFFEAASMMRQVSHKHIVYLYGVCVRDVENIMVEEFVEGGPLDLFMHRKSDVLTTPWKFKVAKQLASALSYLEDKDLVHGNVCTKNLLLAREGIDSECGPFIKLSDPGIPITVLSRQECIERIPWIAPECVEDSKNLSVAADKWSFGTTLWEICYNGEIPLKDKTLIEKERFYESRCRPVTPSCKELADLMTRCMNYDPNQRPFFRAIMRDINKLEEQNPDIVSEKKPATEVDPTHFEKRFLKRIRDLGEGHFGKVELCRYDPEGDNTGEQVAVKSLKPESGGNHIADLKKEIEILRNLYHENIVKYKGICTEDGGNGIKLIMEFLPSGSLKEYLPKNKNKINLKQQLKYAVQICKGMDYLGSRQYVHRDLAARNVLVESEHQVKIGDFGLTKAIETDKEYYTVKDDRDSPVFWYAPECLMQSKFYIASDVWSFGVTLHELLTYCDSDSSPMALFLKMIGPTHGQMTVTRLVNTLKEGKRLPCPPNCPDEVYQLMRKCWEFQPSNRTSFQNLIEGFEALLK
Experimental: (§6) Kinase assays can be performed by measurement of incorporation of γ-^33P ATP into immobilized myelin basic protein (MBP). High binding white 384 well plates (Greiner) are coated with MBP (Sigma #M-1891) by incubation of 60 μL/well of 20 μg/mL MBP in Tris-buffered saline (TBS; 50 mM Tris pH 8.0, 138 mM NaCl, 2.7 mM KCl) for 24 h at 4° C. Plates are washed 3× with 100 μL TBS. Kinase reactions are carried out in a total volume of 34 μL in kinase buffer (5 mM Hepes pH 7.6, 15 mM NaCl, 0.01% bovine gamma globulin (Sigma #I-5506), 10 mM MgCl2, 1 mM DTT, 0.02% TritonX-100). Compound dilutions are performed in DMSO and added to assay wells to a final DMSO concentration of 1%. Each data point is measured in duplicate, and at least two duplicate assays are performed for each individual compound determination. Enzyme is added to final concentrations of 10 nM or 20 nM, for example. A mixture of unlabeled ATP and γ-^33P ATP is added to start the reaction (2×10^6 cpm of γ-^33P ATP per well (3000 Ci/mmole) and 10 μM unlabeled ATP, typically. The reactions are carried out for 1 h at room temperature with shaking Plates are washed 7× with TBS, followed by the addition of 50 μL/well scintillation fluid (Wallac). Plates are read using a Wallac Trilux counter. This is only one format of such assays; various other formats are possible, as known to one skilled in the art.
(§7) The above assay procedure can be used to determine the IC50 for inhibition and/or the inhibition constant, Ki. The IC50 is defined as the concentration of compound required to reduce the enzyme activity by 50% under the condition of the assay. The IC50 value is estimated by preparing a 10 point curve using a ½ log dilution series (for example, a typical curve may be prepared using the following compound concentrations: 3 μM, 1 μM, 0.3 μM, 0.1 μM, 0.03 μM, 0.01 μM, 0.003 μM, 0.001 μM, 0.0003 μM and 0 μM).
JAK1 (h) is incubated with 20 mM Tris/HCl pH 7.5, 0.2 mM EDTA, 500 μM […], 10 mM MgAcetate and [γ-^33P-ATP] (specific activity approx. 500 cpm/pmol, concentration as required).
(§8) The kinase assays described herein were performed at Millipore UK Ltd, Dundee Technology Park, Dundee DD2 1SW, UK.

JAK2 (h) = molecular target: T2, JAK2 (h) (Homo sapiens, UniProt O60674); assay: JAK2 kinase assay; assay type: biochemical
T2 construct: purchased Millipore UK Ltd (assays run there as a service)
T2 sequence (O60674 whole entry): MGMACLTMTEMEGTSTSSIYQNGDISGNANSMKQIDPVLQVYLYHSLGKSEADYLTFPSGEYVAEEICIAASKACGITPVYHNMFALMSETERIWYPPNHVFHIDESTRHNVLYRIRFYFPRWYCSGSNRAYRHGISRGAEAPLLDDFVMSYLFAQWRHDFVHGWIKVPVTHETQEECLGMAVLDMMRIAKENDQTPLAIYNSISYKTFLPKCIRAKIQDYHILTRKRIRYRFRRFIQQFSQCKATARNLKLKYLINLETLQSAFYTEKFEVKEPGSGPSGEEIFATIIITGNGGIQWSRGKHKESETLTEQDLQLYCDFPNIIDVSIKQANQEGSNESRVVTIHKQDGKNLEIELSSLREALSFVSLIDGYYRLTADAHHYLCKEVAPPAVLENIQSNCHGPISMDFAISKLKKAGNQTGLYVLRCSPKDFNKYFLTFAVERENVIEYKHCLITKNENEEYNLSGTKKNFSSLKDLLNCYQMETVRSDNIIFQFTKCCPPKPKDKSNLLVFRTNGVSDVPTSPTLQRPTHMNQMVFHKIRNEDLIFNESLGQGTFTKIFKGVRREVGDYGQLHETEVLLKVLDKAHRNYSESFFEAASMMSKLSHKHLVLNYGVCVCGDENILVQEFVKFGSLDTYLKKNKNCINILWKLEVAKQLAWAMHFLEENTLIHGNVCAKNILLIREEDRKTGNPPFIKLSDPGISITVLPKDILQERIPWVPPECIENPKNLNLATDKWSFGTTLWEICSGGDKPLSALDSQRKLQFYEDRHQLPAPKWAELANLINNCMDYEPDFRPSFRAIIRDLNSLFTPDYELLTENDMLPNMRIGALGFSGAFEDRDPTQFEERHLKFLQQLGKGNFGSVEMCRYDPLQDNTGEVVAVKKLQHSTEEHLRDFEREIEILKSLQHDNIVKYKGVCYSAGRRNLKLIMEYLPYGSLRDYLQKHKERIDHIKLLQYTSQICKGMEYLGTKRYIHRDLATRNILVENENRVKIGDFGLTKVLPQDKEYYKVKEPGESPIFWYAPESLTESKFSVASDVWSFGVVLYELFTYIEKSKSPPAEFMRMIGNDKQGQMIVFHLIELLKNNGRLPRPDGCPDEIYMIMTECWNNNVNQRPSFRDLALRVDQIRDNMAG
Experimental: as §6, §7
(specific activity approx. 500 cpm/pmol, concentration as required).
as §8

Structure (SMILES) | half-life at 5 μM [1] [min] | CLint scaled at 5 μM [1] [mL/min/kg] | half-life at 5 μM [2] [min] | CLint scaled at 5 μM [2] [mL/min/kg] | Cl/F [3] [mL/min/kg] | AUC(0-t) [3] [ng·h/mL] | half-life [3] [min] | Vd [3] [L/kg] | IC50 (JAK1 (h)) [nM] | IC50 (JAK2 (h)) [nM]
Cc1c2ccc(Nc3nccc(N(C)C4CCC5(CC4)CCN(C(=O)CC#N)C5)n3)cc2nn1C (stereo not drawn) [Ex. 2, 3-(8-((2-((2,3-dimethyl-2H-indazol-6-yl)amino)pyrimidin-4-yl)(methyl)amino)-2-azaspiro[4.5]decan-2-yl)-3-oxopropanenitrile] | 20.3 | 85.5 | 22.2 | 112 | 49.8 | 332 | 109 | 3.59 |  | 
Cc1c2ccc(Nc3ncc(Cl)c(NC4CCC5(CC4)CCN(C(=O)CC#N)CC5)n3)cc2nn1C [Ex. 6, 3-(9-((5-chloro-2-((2,3-dimethyl-2H-indazol-6-yl)amino)pyrimidin-4-yl)amino)-3-azaspiro[5.5]undecan-3-yl)-3-oxopropanenitrile] | 79.8 | 21.8 | 41 | 60.6 | 22.3 | 743 | 78.6 | 2.55 | 0.6 | 2
Cc1cnc(Nc2ccc3c(C)n(C)nc3c2)nc1NC1CC2CN(C(=O)CC#N)CC2C1 (stereo not drawn) [Ex. 9, 3-(5-((2-((2,3-dimethyl-2H-indazol-6-yl)amino)-5-methylpyrimidin-4-yl)amino)hexahydrocyclopenta[c]pyrrol-2(1H)-yl)-3-oxopropanenitrile] | 31.2 | 55.7 | 52.7 | 47.1 |  |  |  |  | 2 | 
Cc1cnc(Nc2ccc3c(C)n(C)nc3c2)nc1NC1CC2CN(S(C)(=O)=O)CC2C1 (stereo not drawn) [Ex. 10, N^2-(2,3-dimethyl-2H-indazol-6-yl)-5-methyl-N^4-(2-(methylsulfonyl)octahydrocyclopenta[c]pyrrol-5-yl)pyrimidine-2,4-diamine] | 20 | 87 | 50.7 | 49 | 33.2 | 501 | 43.8 | 1.75 | 7 | 
CC(=O)N1CC2CC(Nc3nc(Nc4ccc5c(C)n(C)nc5c4)ncc3C)CC2C1 (stereo not drawn) [Ex. 11, 1-(5-((2-((2,3-dimethyl-2H-indazol-6-yl)amino)-5-methylpyrimidin-4-yl)amino)hexahydrocyclopenta[c]pyrrol-2(1H)-yl)ethanone] |  |  |  |  |  |  |  |  | 57 | 
Cc1cnc(Nc2ccc3c(C)n(C)nc3c2)nc1NC1CCC2(CC1)CCN(C(=O)CC#N)CC2 [Ex. 12, 3-(9-((2-((2,3-dimethyl-2H-indazol-6-yl)amino)-5-methylpyrimidin-4-yl)amino)-3-azaspiro[5.5]undecan-3-yl)-3-oxopropanenitrile] | 166 | 10.4 | 57.8 | 43 | 114 | 144 | 54 | 5.71 | 1 | 
CC(=O)N1CCC2(CCC(Nc3nc(Nc4ccc5c(C)n(C)nc5c4)ncc3C)CC2)CC1 [Ex. 13, 1-(9-((2-((2,3-dimethyl-2H-indazol-6-yl)amino)-5-methylpyrimidin-4-yl)amino)-3-azaspiro[5.5]undecan-3-yl)ethanone] | 51.7 | 33.6 | 27.9 | 89.2 | 75.5 | 238 | 38.4 | 3.5 | 2 | 
